Measurements as given in patent US20080207527A1, “Bicyclic Compounds Which Inhibit Beta-Secretase Activity and Methods of Use Thereof” (CoMentis, Inc., priority 2004, published 2008).

Legend:
memapsin 1 = biological target: T1, memapsin 1 (Homo sapiens, UniProt Q9Y5Z0); assay: Inhibition of memapsin 1 beta-secretase activity (substrate peptide hydrolysis, MALDI-TOF); assay type: biochemical; settings: pH 4.1, 37 degrees C., read-out: M1 Ki
T1 sequence (Q9Y5Z0 63-518): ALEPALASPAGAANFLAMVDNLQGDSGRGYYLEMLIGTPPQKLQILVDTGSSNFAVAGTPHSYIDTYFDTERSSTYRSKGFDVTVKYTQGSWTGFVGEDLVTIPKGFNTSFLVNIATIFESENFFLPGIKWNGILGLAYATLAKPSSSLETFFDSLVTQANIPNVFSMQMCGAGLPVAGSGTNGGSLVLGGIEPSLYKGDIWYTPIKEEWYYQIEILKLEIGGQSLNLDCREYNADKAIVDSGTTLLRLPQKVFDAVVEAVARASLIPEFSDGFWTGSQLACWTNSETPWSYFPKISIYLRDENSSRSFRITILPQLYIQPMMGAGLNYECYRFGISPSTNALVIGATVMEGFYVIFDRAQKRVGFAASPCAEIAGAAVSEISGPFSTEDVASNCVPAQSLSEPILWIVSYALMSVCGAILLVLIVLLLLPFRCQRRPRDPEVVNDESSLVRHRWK

memapsin 2 = memapsin 2 (Homo sapiens, UniProt P56817); assay: Inhibition of memapsin 2 beta-secretase activity toward fluorogenic substrate FS-2; assay type: biochemical; settings: pH 4, 37° C., 20 minutes pre-incubation, read-out: M2 Ki
memapsin 2, sequence (P56817 46-501): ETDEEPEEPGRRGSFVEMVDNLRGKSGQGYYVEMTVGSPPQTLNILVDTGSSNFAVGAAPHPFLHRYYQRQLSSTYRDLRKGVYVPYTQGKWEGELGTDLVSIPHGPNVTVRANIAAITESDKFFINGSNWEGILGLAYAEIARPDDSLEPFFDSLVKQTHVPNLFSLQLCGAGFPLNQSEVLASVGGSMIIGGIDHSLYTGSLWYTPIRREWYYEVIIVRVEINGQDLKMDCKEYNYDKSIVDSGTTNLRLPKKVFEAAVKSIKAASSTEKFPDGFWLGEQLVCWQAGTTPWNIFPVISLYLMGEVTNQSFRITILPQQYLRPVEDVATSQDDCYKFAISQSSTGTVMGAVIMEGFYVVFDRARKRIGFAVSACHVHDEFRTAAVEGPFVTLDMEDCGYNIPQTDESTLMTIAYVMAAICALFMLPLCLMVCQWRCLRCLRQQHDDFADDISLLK
Outline: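 Enzyme pre-incubated with compound 20 min at pH 4, 37 °C, then fluorogenic substrate FS-2 added. Inhibition derived from rate of fluorescence increase from peptide hydrolysis.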

Cathepsin D = Cathepsin D (Homo sapiens, UniProt P07339); assay: Inhibition of cathepsin D activity (substrate peptide hydrolysis, MALDI-TOF); assay type: biochemical; settings: pH 4.1, 37 degrees C., read-out: Cath D Ki
Cathepsin D, sequence (P07339 65-412, species assumed): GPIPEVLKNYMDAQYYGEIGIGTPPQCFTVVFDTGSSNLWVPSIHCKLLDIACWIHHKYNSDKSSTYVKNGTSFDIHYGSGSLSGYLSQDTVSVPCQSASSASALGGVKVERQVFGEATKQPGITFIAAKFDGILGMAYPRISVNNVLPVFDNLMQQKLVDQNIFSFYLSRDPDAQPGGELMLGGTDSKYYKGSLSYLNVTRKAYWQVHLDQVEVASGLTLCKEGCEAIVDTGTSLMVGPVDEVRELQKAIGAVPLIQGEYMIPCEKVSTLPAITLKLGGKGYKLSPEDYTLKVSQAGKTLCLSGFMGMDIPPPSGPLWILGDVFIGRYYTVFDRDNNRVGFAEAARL

Aβ production = assay: Cellular Aβ IC50 determination (Aβ40 sandwich ELISA); assay type: cell-based; settings: Cricetulus griseus, Chinese hamster ovary cells over-expressing human APP695 with London and Swedish mutations, 24 h
Outline: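 CHO cells over-expressing human APP695 (London and Swedish mutations) were treated 48 h after seeding with serially diluted compound, top final concentration near 4 μM (0.4% DMSO), for 24 h at 37 °C, 5% CO2. Aβ40 in medium was measured by sandwich ELISA; values relative to control were fit to a 4-parameter IC50 model.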

Row | SMILES | Ki (memapsin 1) | Ki (memapsin 2) | Ki (Cathepsin D) | IC50 (Aβ production)
1 | Cc1csc(CNC(=O)c2cccc(C(=O)N[C@@H](CC(C)C)[C@@H](O)C[C@@H](C)C(=O)N[C@H](C(=O)NCC(C)C)C(C)C)c2)n1 [N1-(5-hydroxy-8-(1-(isobutylamino)-3-methyl-1-oxobutan-2-ylamino)-2,7-dimethyl-8-oxooctan-4-yl)-N3-((4-methylthiazol-2-yl)methyl)isophthalamide] | 2 to 5 µM | < 0.405 µM | 0.405 to 2 µM | > 20 µM
2 | Cc1ccc(CNC(=O)c2cc(C(=O)NC(CC(C)C)C(O)CC(C)C(=O)NC(C(=O)NCC(C)C)C(C)C)cc(N(C)S(C)(=O)=O)c2)o1 (centres unmarked) [N1-(5-hydroxy-8-(1-(isobutylamino)-3-methyl-1-oxobutan-2-ylamino)-2,7-dimethyl-8-oxooctan-4-yl)-N3-((5-methylfuran-2-yl)methyl)-5-(N-methylmethylsulfonamido)isophthalamide] | 0.405 to 2 µM | < 0.405 µM | 0.405 to 2 µM | < 5 µM
3 | CC(C)CNC(=O)C(NC(=O)C(C)CC(O)C(CC(C)C)NC(=O)c1cccc(C(=O)N(C)C(C)c2ccccc2)c1)C(C)C (centres unmarked) [N1-(5-hydroxy-8-(1-(isobutylamino)-3-methyl-1-oxobutan-2-ylamino)-2,7-dimethyl-8-oxooctan-4-yl)-N3-methyl-N3-(1-phenylethyl)isophthalamide] | < 0.405 µM | < 0.405 µM | < 0.405 µM | > 20 µM
4 | Cc1csc(CN(C)C(=O)c2cccc(C(=O)NC(CC(C)C)C(O)CC(C)C(=O)NC(C(=O)NCC(C)C)C(C)C)c2)n1 (centres unmarked) [N1-(5-hydroxy-8-(1-(isobutylamino)-3-methyl-1-oxobutan-2-ylamino)-2,7-dimethyl-8-oxooctan-4-yl)-N3-methyl-N3-((4-methylthiazol-2-yl)methyl)isophthalamide] | 0.405 to 2 µM | < 0.405 µM | < 0.405 µM | < 5 µM
5 | CC(C)CNC(=O)C(NC(=O)C(C)CC(O)C(CC(C)C)NC(=O)c1cccc(C(=O)N(C)Cc2cnccn2)c1)C(C)C (centres unmarked) [N1-(5-hydroxy-8-(1-(isobutylamino)-3-methyl-1-oxobutan-2-ylamino)-2,7-dimethyl-8-oxooctan-4-yl)-N3-methyl-N3-(pyrazin-2-ylmethyl)isophthalamide] | 0.405 to 2 µM | 0.405 to 2 µM | < 0.405 µM | > 20 µM

Continued, values first:

Row | Ki (memapsin 1) | Ki (memapsin 2) | Ki (Cathepsin D) | IC50 (Aβ production) | SMILES
6 | < 0.405 µM | 0.405 to 2 µM | < 0.405 µM | > 20 µM | CC(C)CNC(=O)C(NC(=O)C(C)CC(O)C(CC(C)C)NC(=O)c1cc(C(=O)N(C)C(C)c2ccccc2)cc(N(C)S(C)(=O)=O)c1)C(C)C (centres unmarked) [N1-(5-hydroxy-8-(1-(isobutylamino)-3-methyl-1-oxobutan-2-ylamino)-2,7-dimethyl-8-oxooctan-4-yl)-N3-methyl-5-(N-methylmethylsulfonamido)-N3-(1-phenylethyl)isophthalamide]
7 | 0.405 to 2 µM | < 0.405 µM | < 0.405 µM | > 20 µM | CC(C)CNC(=O)C(NC(=O)C(C)CC(O)C(CC(C)C)NC(=O)c1cc(C(=O)N(C)Cc2ccccn2)cc(N(C)S(C)(=O)=O)c1)C(C)C (centres unmarked) [N1-(5-hydroxy-8-(1-(isobutylamino)-3-methyl-1-oxobutan-2-ylamino)-2,7-dimethyl-8-oxooctan-4-yl)-N3-methyl-5-(N-methylmethylsulfonamido)-N3-(pyridin-2-ylmethyl)isophthalamide]
8 | < 0.405 µM | 0.405 to 2 µM | < 0.405 µM | > 20 µM | CC(C)CNC(=O)C(NC(=O)C(C)CC(O)C(CC(C)C)NC(=O)c1cccc(C(=O)N(C)Cc2ccccn2)c1)C(C)C (centres unmarked) [N1-(5-hydroxy-8-(1-(isobutylamino)-3-methyl-1-oxobutan-2-ylamino)-2,7-dimethyl-8-oxooctan-4-yl)-N3-methyl-N3-(pyridin-2-ylmethyl)isophthalamide]
